The values that follow come from article PMC8584173, “The Cytotoxic Effect of Copper (II) Complexes with Halogenated 1,3-Disubstituted Arylthioureas on Cancer and Bacterial Cells” (International Journal of Molecular Sciences, 2021).

Structures are written as SMILES.

Assay [1] has as its system SW480 (human primary colon cancer). Put plainly: MTT cytotoxicity assay, SW480. Conditions: SW480, 72 h. It counts as cell-based. As for the experimental part: The human primary (SW480), metastatic (SW620) colon cancer, metastatic prostate cancer (PC3) and human immortal keratinocyte (HaCaT) cell lines were purchased from the American Type Culture Collection (ATCC, Rockville, USA). The cells were cultured in medium according to protocols (MEM for SW480 and SW620, RPMI 1640 for PC3 and DMEM for HaCaT cells) supplemented with 10% fetal bovine serum (FBS), penicillin (100 U/mL) and streptomycin (100 μg/mL) and cultured in 37 °C/ 5% CO2 humidified incubator. The cells were cultured until appropriate confluence was achieved (80–90%). Next, they were harvested by treatment with 0.25% trypsin (Gibco Life Technologies, USA) and used for studies.
Cells without studied compounds in medium were used as a control.
The cell viability was assessed by determination of MTT salt (3-(4,5-dimethylthiazol-2-yl)-2,5-diphenyltetrazolium bromide) conversion by mitochondrial dehydrogenase. MTT assay was performed as previously described. Experiments were repeated three times. Cell viability was presented as a percentage of MTT reduction in the treated cells versus the control cells. Number of viable cells cultured without studied compounds was assumed to be 100%. Decreased relative MTT level means decreased cell viability. Thiourea complexes with the highest cytotoxic potential assessed by MTT determination (with the lowest IC50) were chosen for subsequent assessments of cytotoxicity mechanisms.
(In general: Formazan colour is commonly taken as a measure of viable cells.)

In assay [2] the test system is S. aureus 567. Put plainly: MIC, hospital MRSA strain. Format: cell-based, Staphylococcus aureus. Conditions: hospital MRSA S. aureus 567. The method in brief: (§1)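 Twofold serial broth microdilution per CLSI, in Mueller–Hinton broth for bacteria and RPMI-1640 for Candida, with a final inoculum of 10^5 CFU/mL. Compounds were dissolved in DMSO and diluted in sterile water.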

For assay [3], the system named is S. aureus 573. Description: MIC, hospital MRSA strain. To be noted: hospital MRSA S. aureus 573. It counts as cell-based, Staphylococcus aureus. The method in brief: as §1
Assay [4] concerns S. aureus 568. Put plainly: MIC, hospital MRSA strain. It counts as cell-based, Staphylococcus aureus. Conditions: hospital MRSA S. aureus 568. The method in brief:
as §1

Assay [5] relates to S. aureus 495. Description: MIC, hospital MRSA strain. Conditions: hospital MRSA S. aureus 495. It counts as cell-based, Staphylococcus aureus. The method in brief:
as §1

In assay [6] the test system is S. aureus 572. Put plainly: MIC, hospital MRSA strain. It counts as cell-based, Staphylococcus aureus. To be noted: for MIC: hospital MRSA S. aureus 572; for times more active than ciprofloxacin: S. aureus 572. The method in brief: as §1
In assay [7] the test system is S. aureus 585. Description: MIC, hospital MRSA strain. It counts as cell-based, Staphylococcus aureus. Conditions: hospital MRSA S. aureus 585. The method in brief: as §1
Assay [8] has as its system S. aureus 514. Description: MIC, hospital MRSA strain. Format: cell-based, Staphylococcus aureus. To be noted: hospital MRSA S. aureus 514. The method in brief:
as §1

The test system of assay [9] is S. aureus 586. Put plainly: MIC, hospital MRSA strain. It counts as cell-based, Staphylococcus aureus. To be noted: hospital MRSA S. aureus 586. The method in brief: as §1
Assay [10] deals with S. aureus 537. Put plainly: MIC, hospital MRSA strain. It counts as cell-based, Staphylococcus aureus. To be noted: hospital MRSA S. aureus 537. The method in brief: as §1
For assay [11], the system named is S. aureus 522. Description: MIC, hospital MRSA strain. To be noted: hospital MRSA S. aureus 522. Format: cell-based, Staphylococcus aureus. The method in brief: as §1
The test system of assay [12] is S. aureus 496. Description: MIC, hospital MRSA strain. It counts as cell-based, Staphylococcus aureus. To be noted: hospital MRSA S. aureus 496. The method in brief:
as §1

In assay [13] the test system is S. aureus 497. Put plainly: MIC, hospital MRSA strain. It counts as cell-based, Staphylococcus aureus. To be noted: hospital MRSA S. aureus 497. The method in brief:
as §1

In assay [14] the test system is S. aureus 498. Description: MIC, hospital MRSA strain. It counts as cell-based, Staphylococcus aureus. To be noted: hospital MRSA S. aureus 498. The method in brief: as §1
Assay [15] relates to C. albicans ATCC 10231. Put plainly: MIC, twofold serial microdilution. Format: cell-based, Candida albicans. To be noted: C. albicans ATCC 10231, 24 h, 35 °C. As for the experimental part: (§2) The antimicrobial activity of the compounds was tested on Gram-positive bacteria (Staphylococcus aureus NCTC 4163, Staphylococcus aureus ATCC 25923, Staphylococcus aureus ATCC 6538, Staphylococcus aureus ATCC 29213, Staphylococcus epidermidis ATCC 12228, Staphylococcus epidermidis ATCC 35984), Gram-negative rods (Escherichia coli ATCC 10538, Escherichia coli ATCC 25922, Pseudomonas aeruginosa ATCC 15442, Pseudomonas aeruginosa ATCC 27863) and yeasts (Candida albicans ATCC 10231, Candida albicans ATCC 90028, Candida parapsilosis ATCC 22019). Hospital methicillin-resistant strains of Staphylococcus aureus and Staphylococcus epidermidis were obtained from the collection of the Department of Pharmaceutical Microbiology, Medical University of Warsaw, Poland.
(§3) Antifungal activities were assessed using Mueller–Hinton agar + 2% glucose and 0.5 µg/mL methylene blue dye medium. Sterile filter paper discs (9 mm diameter, Whatman Number 3 chromatography paper) were dripped with tested compound solutions (in dimethylsulfoxide, DMSO) to load 400 μg of a given compound per disc. Dry discs were placed on the surface of appropriate agar medium. The results (diameter of the growth inhibition zone) were read after 18 h of incubation at 35 °C. Minimal inhibitory concentration (MIC) was tested by the twofold serial microdilution method (in 96-well microtiter plates) using Mueller–Hinton broth medium (Beckton Dickinson) for bacteria or RPMI-1640 medium for Candida species, according to CLSI guidelines. The stock solution of tested agent was prepared in DMSO and diluted in sterile water. […] The final inoculum of all studied microorganisms was 10^5 CFU/ mL^−1 (colony forming units per ml). Minimal inhibitory concentrations (the lowest concentration of a tested agent that prevents visible growth of a microorganism) were read after 18 h (bacteria) or 24 h (yeasts) of incubation at 35 °C.
Background: Broth dilution looks for growth in wells or tubes with falling amounts of substance.

Assay [16] relates to C. albicans ATCC 90028. Put plainly: MIC, twofold serial microdilution. It counts as cell-based, Candida albicans. Conditions: C. albicans ATCC 90028, 24 h, 35 °C. The procedure:
as §2, §3

The test system of assay [17] is S. epidermidis ATCC 35984. Description: MIC, twofold serial microdilution. Conditions: S. epidermidis ATCC 35984, 18 h, 35 °C. It counts as cell-based, Staphylococcus epidermidis. The procedure:
as §2, §3

Assay [18] deals with S. epidermidis ATCC 12228. Put plainly: MIC, twofold serial microdilution. Format: cell-based, Staphylococcus epidermidis. Conditions: S. epidermidis ATCC 12228, 18 h, 35 °C. As for the experimental part: as §2, §3
The test system of assay [19] is C. parapsilosis ATCC 22019. Put plainly: MIC, twofold serial microdilution. It counts as cell-based, Candida parapsilosis. To be noted: C. parapsilosis ATCC 22019, 24 h, 35 °C. The procedure: as §2, §3

With `O=[N+]([O-])c1cc([N+]2=C(Nc3ccccc3Br)[S][Cu-2]23[S]C(Nc2ccccc2Br)=[N+]3c2ccc(Cl)c([N+](=O)[O-])c2)ccc1Cl` [Compound 1, Copper (II) complex with 1-(2-bromophenyl)-3-(4-chloro-3-nitrophenyl)thiourea], the IC50 in [1] was found to be 4.7 ± 0.3 µM. Further, the MIC in assay [2], in [3], in assay [4], in assay [5], in assay [6] and in assay [7] was 8 µg/mL in each case. Moreover, the MIC in assay [8] was 8 µg/mL; in assay [9] it was 4 µg/mL; in [10], 8 µg/mL; in assay [11], 8 µg/mL; in [12], 8 µg/mL; in assay [13], 8 µg/mL. The MIC was 8 µg/mL in assay [14]; no less than 256 µg/mL in [15]; no less than 256 µg/mL in assay [16]; 8 µg/mL in [17]; 16 µg/mL in [18]; no less than 256 µg/mL in assay [19].

`O=[N+]([O-])c1cc([N+]2=C(Nc3ccc(F)c(Cl)c3)[S][Cu-2]23[S]C(Nc2ccc(F)c(Cl)c2)=[N+]3c2ccc(Cl)c([N+](=O)[O-])c2)ccc1Cl` [Compound 4, Copper (II) complex with 1-(3-chloro-4-fluorophenyl)-3-(4-chloro-3-nitrophenyl)thiourea] yielded an IC50 in assay [1] of 19.2 ± 1.1 µM. The MIC in assay [2], in assay [3], in assay [4], in assay [5], in assay [6] and in [7] was 4 µg/mL throughout. Further, the MIC in [8] worked out at 4 µg/mL; in [9], 4 µg/mL; in [10] it was 4 µg/mL; in assay [11], 4 µg/mL; in assay [12] it was 8 µg/mL; in assay [13], 8 µg/mL. The MIC in assay [14] was 4 µg/mL; in assay [15], 128 µg/mL; in assay [16] it was 128 µg/mL; in assay [17], 4 µg/mL; in assay [18], 4 µg/mL; in assay [19], 64 µg/mL. For the same compound, the “times more active than ciprofloxacin” value in [6] amounted to 64 times.

In the case of `O=[N+]([O-])c1cc([N+]2=C(Nc3ccc(I)cc3)[S][Cu-2]23[S]C(Nc2ccc(I)cc2)=[N+]3c2ccc(Cl)c([N+](=O)[O-])c2)ccc1Cl` [Compound 8, Copper (II) complex with 1-(4-iodophenyl)-3-(4-chloro-3-nitrophenyl)thiourea], the IC50 in [1] was determined as 3.9 ± 0.8 µM. Besides, the MIC in assay [2] is given as 8 µg/mL; in [3], 8 µg/mL; in assay [4], 8 µg/mL; in assay [5], 4 µg/mL; in assay [6], 4 µg/mL; in [7] it was 8 µg/mL. Besides, the MIC in assay [8] was found to be 4 µg/mL; in assay [9], 8 µg/mL; in assay [10], 8 µg/mL; in assay [11], 4 µg/mL; in [12] it was 8 µg/mL; in assay [13], 8 µg/mL. The MIC in assay [14] turned out to be 8 µg/mL; in [15], 64 µg/mL; in assay [16] it was 128 µg/mL; in assay [17], 4 µg/mL; in assay [18], 8 µg/mL; in assay [19], 64 µg/mL. In assay [6], the “times more active than ciprofloxacin” value is listed as 64 times.

A word on the IC50: it is the concentration needed to halve the response being measured. For orientation: MIC means the lowest concentration found to suppress growth. Read a high MIC as a need for much substance.
